Experimental data from publication PMC7449411, “In silico discovery and biological validation of ligands of FAD synthase, a promising new antimicrobial target” (PLoS Computational Biology, 2020).
≈ marks a conversion by molar mass, not a printed value.

Assays:
P. aeruginosa = experiment: MIC, resazurin broth microdilution; format: cell-based, Pseudomonas aeruginosa; details: media MH
C. ammoniagenes = experiment: MIC, resazurin broth microdilution; format: cell-based, Corynebacterium ammoniagenes; details: for MIC: C. ammoniagenes; for MIC C. ammoniagenes: S5 Fig legend, medium not stated; for MIC (μM) C. ammoniagenes: Table 3
Mycobacteriumspecies = experiment: MIC against Mycobacterium species (S5 Fig legend); format: cell-based
E. coli = experiment: MIC, resazurin broth microdilution; format: cell-based, Escherichia coli; details: media LB
M. tuberculosis = experiment: MIC, resazurin broth microdilution; format: cell-based, Mycobacterium tuberculosis; details: for MIC: M. tuberculosis, media 7H9G-ADC; for MIC (μM) M. tuberculosis: Table 3
L. monocytogenes = experiment: MIC, resazurin broth microdilution; format: cell-based, Listeria monocytogenes; details: media BHI
C. diphteriae = experiment: MIC, resazurin broth microdilution; format: cell-based, Corynebacterium diphteriae
S. thyphimurium = experiment: MIC, resazurin broth microdilution; format: cell-based, Salmonella thyphimurium; details: media MH
S. aureus = experiment: MIC, resazurin broth microdilution; format: cell-based, Staphylococcus aureus; details: media MH
C. glutamicum = experiment: MIC, resazurin broth microdilution; format: cell-based, Corynebacterium glutamicum; details: media BHI
HeLa = experiment: MTT cytotoxicity assay; format: cell-based; details: 24 h; for IC50: 4-512 μM range, read-out: IC50 (concentration causing 50% inhibition of cellular viability)
Method: (§1) The (4,5-dimethylthiazol-2-yl)-2,5-diphenyl tetrazolium bromide (MTT) assay was used to determine the effect of the compounds in cell growth and viability of HeLa (ATCC CCL-2) and A549 (ATCC CCL-185) eukaryotic cell lines. Both cell lines were routinely cultured in high-glucose DMEM (Lonza) supplemented with 10% fetal bovine serum, 4 mM glutamine GlutaMAX™ (Gibco) and 1x non-essential amino acids (Gibco), under 5% CO2 at 37 °C in a humidified atmosphere. For the MTT assay, cells were initially seeded in 96-well flat-bottom plates at a density of 10^4 cells per well and cultured for 24 h. Cultures were routinely tested for mycoplasma presence. The compounds were dissolved in fresh culture medium, added in a 4-512 μM concentration range (1% DMSO final concentration), and incubated with the cells for 24 h. Finally, formazan crystals were dissolved with pure DMSO and MTT absorbance was measured at 570 and 650 nm. Untreated cells were included as control of 100% viability. Assays were done in quadruplicate.

A549 = experiment: MTT cytotoxicity assay; format: cell-based; details: 24 h; for IC50: 4-512 μM range, read-out: IC50 (concentration causing 50% inhibition of cellular viability)
Method: as §1

Bacillus spp. = experiment: MIC, resazurin broth microdilution; format: cell-based, Bacillus sp.; details: media MH
CaFADS = target: T1, CaFADS (Corynebacterium ammoniagenes, UniProt Q59263); experiment: Differential scanning fluorescence (thermal denaturation) binding to CaFADS; details: for Tm shift of CaFADS thermal denaturation: 2 μM CaFADS, compound up to 250 μM; for Kd: from differential scanning fluorescence data fitted to Eq 2, 20 mM PIPES pH 7.0, 10 mM MgCl2, 2% DMSO, n = 3, mean ± SD
T1 construct: made in house; host or cells: Escherichia coli BL21(DE3)
T1 sequence (Q59263 whole entry): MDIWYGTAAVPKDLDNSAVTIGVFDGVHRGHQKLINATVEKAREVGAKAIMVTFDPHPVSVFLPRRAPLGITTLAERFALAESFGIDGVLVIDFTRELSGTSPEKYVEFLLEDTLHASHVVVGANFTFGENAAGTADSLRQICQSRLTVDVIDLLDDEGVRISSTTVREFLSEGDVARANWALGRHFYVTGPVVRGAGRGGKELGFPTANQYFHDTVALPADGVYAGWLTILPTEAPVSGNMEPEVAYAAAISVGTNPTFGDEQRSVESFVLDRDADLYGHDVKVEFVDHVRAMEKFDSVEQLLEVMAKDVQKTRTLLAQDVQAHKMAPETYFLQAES
Method: Interaction of compounds with CaFADS was evaluated using fluorescence thermal denaturation, on the bases of the shifts in denaturation midpoints of thermal curves of the protein [65]. Denaturations were performed in a Stratagene Agilent Mx3005p qPCR instrument (Santa Clara, US) following SYPR Orange (ThermoFisher Scientific) emission fluorescence (excitation at 492 nm and emission at 610 nm), which greatly increases when this probe binds to protein hydrophobic regions becoming solvent exposed upon thermal unfolding. Solutions containing 2 μM CaFADS with the studied compound in an increasing 5-250 μM concentration range (2% residual final concentration of DMSO) and 5xSYPR Orange in 20 mM PIPES pH 7.0, 10 mM MgCl2, with a 100 μL total volume were dispensed into 96-well microplates (BRAND 96-well plates pure grade™). After an initial 1 min incubation at 25 °C within the equipment, unfolding curves were registered from 25 to 100 °C at 1 °C·min^−1. Control experiments with CaFADS samples with/without DMSO were routinely performed in each microplate. For those compounds shifting midpoint denaturation temperature, Tm, the dissociation constant, Kd, was predicted by fitting the data to the equation [66] ΔTm/Tm=NRTm0/ΔH0ln(1+[L]/Kd), (2) which estimates the extent of the ligand-induced protein stabilization/destabilization. ΔTm=|Tm-Tm0| with Tm0 and Tm being the midpoint denaturation temperatures in the absence and the presence of ligand, respectively, and ΔH0 the unfolding enthalpy of the protein in the absence of ligand.

[1] = target: T2, RFK+FMNAT CaFADS activities (Corynebacterium ammoniagenes, UniProt Q59263); experiment: Inhibition of the RFK+FMNAT activity of CaFADS; format: biochemical; details: residual activity at 250 μM of compound, 25 °C
T2 construct: made in house; host or cells: Escherichia coli BL21(DE3)
T2 sequence (Q59263 whole entry): as above
Method: (§2) To determine the compound’s ability to inhibit the RFK and/or the FMNAT activities of CaFADS, both enzymatic activities were quantitatively measured in the absence and presence of the compounds following previously described protocols. Reaction mixtures contained 50 μM ATP, 5 μM RF in 20 mM PIPES, pH 7.0, 0.8 mM MgCl2, when assaying the RFK activity, and 50 μM ATP, 10 μM FMN in 20 mM PIPES, pH 7.0, 10 mM MgCl2 when measuring the FMNAT reaction. Each compound was tested at 250 μM (0.5% residual final concentration of DMSO) for each of the two enzymatic reactions. The samples were pre-incubated at 25 °C, the reaction was then initiated by the addition of ∼ 40 nM CaFADS (final concentration) and allowed for 1 min. Finally, the reaction was stopped by boiling the samples for 5 min and the denatured protein was eliminated through centrifugation. The transformation of RF into FMN and FAD (RFK activity) and of FMN into FAD (FMNAT activity) was evaluated through flavins separation by HPLC (Waters), as previously described. All the experiments were performed in triplicate. To evaluate the potency of compounds as inhibitors, we took advantage of the decrease in quantum yield of fluorescence when FMN is transformed into FAD, which allows to follow such transformation in a continuous system. Measurements were carried out using a microplate reader Synergy HT multimode plate reader (Biotek) with BRAND 96-well plates pure Grade. Reaction mixtures contained 5 μM RF or FMN, and 50 μM ATP in 20 mM PIPES, pH 7.0, 10 mM MgCl2, and the inhibitor compound in a 5-250 μM concentration range (2% residual final concentration of DMSO). Reactions were initiated through addition of 0.4 μM CaFADS, being the final reaction volume 100 μL. Flavin fluorescence (excitation at 440 nm and emission at 530 nm) was registered at 25 °C, every 50 s during 15 min. The fluorescence change per time unit (ΔF/Δt) was calculated as the slope of the resulting fluorescence decays recorded between 0 and 6 min (linear decay of the fluorescence). Controls which contained the reaction mixture without the enzyme and without any potential CaFADS inhibitory compound were included in the assay and referred as the 0% and 100% of enzymatic activity, respectively. IC50 was calculated as the concentration of compound required for a 50% inhibition of the enzymatic activity.

S. pneumoniae = experiment: MIC, resazurin broth microdilution; format: cell-based, Streptococcus pneumoniae
FMNAT activity of CaFADS = target: T3, FMNAT activity of CaFADS (Corynebacterium ammoniagenes, UniProt Q59263); experiment: Inhibition of the FMNAT activity of CaFADS; format: biochemical
T3 construct: made in house; host or cells: Escherichia coli BL21(DE3)
T3 sequence (Q59263 whole entry): as above
Method: as §2

M. smegmatis = experiment: MIC, resazurin broth microdilution; format: cell-based, Mycobacterium smegmatis; details: media 7H9G-ADC
[2] = complete viability at lower concentrations

| Structure (SMILES) | MIC (P. aeruginosa) [µM] | MIC (C. ammoniagenes; media MH) [µM] | MIC (C. ammoniagenes; media MH+DFO) [µM] | MIC (C. ammoniagenes; media MH+DIP) [µM] | MIC (C. ammoniagenes; media MH+DIP+DFO) [µM] | MIC C. ammoniagenes (C. ammoniagenes) | MIC (μM) C. ammoniagenes (C. ammoniagenes) [µM] | MIC Mycobacterium species (Mycobacteriumspecies) | MIC (E. coli) [µM] | MIC (M. tuberculosis) [µM] | MIC (μM) M. tuberculosis (M. tuberculosis) [µM] | MIC (L. monocytogenes) [µM] | MIC (C. diphteriae; media MH) [µM] | MIC (S. thyphimurium) [µM] | MIC (S. aureus) [µM] | MIC (C. glutamicum) [µM] | MIC (Bacillus spp.) [µM] | MIC (C. ammoniagenes; media BHI) [µM] | Tm shift of CaFADS thermal denaturation (CaFADS) | Kd (CaFADS) [µM] | other results |
| --- | --- | --- | --- | --- | --- | --- | --- | --- | --- | --- | --- | --- | --- | --- | --- | --- | --- | --- | --- | --- | --- |
| CC1(C)c2ccccc2-n2c1cc1oc(=O)cc(O)c1c2=O [Compound C27, 4-hydroxy-11,11-dimethyl-5,11-dihydro-2H-pyrano[2',3':4,5]pyrido[1,2-a]indole-2,5-dione] | > 256 | 128 (≈ 37.8 µg/mL) | 128 (≈ 37.8 µg/mL) | 64 (≈ 18.9 µg/mL) | 128 (≈ 37.8 µg/mL) | lower than 256 μM | 128 (≈ 37.8 µg/mL) | lower than 256 μM | > 256 | 256 (≈ 75.6 µg/mL) | 256 (≈ 75.6 µg/mL) | 64 (≈ 18.9 µg/mL) | 64 (≈ 18.9 µg/mL) | > 256 | 64 (≈ 18.9 µg/mL) | 64 (≈ 18.9 µg/mL) | 32 (≈ 9.45 µg/mL) | – | – | – | concentration range with moderate cytotoxicity (HeLa; [2]): 256 to 512 µM; concentration range with moderate cytotoxicity (A549; [2]): 256 to 512 µM |
| CC(C)c1ccc(NC(=S)NNC(=O)NC(=O)c2csc([N+](=O)[O-])c2)cc1 [Compound C6, N-({2-[(4-isopropylanilino)carbothioyl]hydrazino}carbonyl)-5-nitrothiophene-3-carboxamide] | > 256 | 128 (≈ 52.2 µg/mL) | 128 (≈ 52.2 µg/mL) | 128 (≈ 52.2 µg/mL) | 128 (≈ 52.2 µg/mL) | lower than 256 μM | 128 (≈ 52.2 µg/mL) | lower than 256 μM | > 64 | – | 128 (≈ 52.2 µg/mL) | > 64 | 128 (≈ 52.2 µg/mL) | > 256 | > 256 | > 64 | – | > 64 | more than 3 degrees | 41 ± 3 | RFK+FMNAT % Res. act. 250 μM [1]: 57 ± 3%; MIC (S. pneumoniae; media BHI): > 256 µM; MIC (S. pneumoniae; media MH): 64 µM (≈ 26.1 µg/mL); FMNAT % Res. act. 250 μM (FMNAT activity of CaFADS; residual activity at 250 μM of compound, 25 °C): 48 ± 6%; MIC (M. smegmatis): > 256 µM; MIC (C. diphteriae; media BHI): > 64 µM; IC50 (HeLa): > 512 µM; IC50 (A549): > 512 µM |
| O=C(Nc1ccccc1C(=O)O)OCC1c2ccccc2-c2ccccc21 [Compound C5, 2-{[(9H-9-fluorenylmethoxy)carbonyl]amino}benzoic acid] | > 256 | 32 (≈ 11.5 µg/mL) | 32 (≈ 11.5 µg/mL) | 32 (≈ 11.5 µg/mL) | 32 (≈ 11.5 µg/mL) | – | 32 (≈ 11.5 µg/mL) | lower than 256 μM | > 64 | 128 (≈ 46 µg/mL) | 128 (≈ 46 µg/mL) | > 64 | 32 (≈ 11.5 µg/mL) | > 256 | – | 32 (≈ 11.5 µg/mL) | 32 (≈ 11.5 µg/mL) | > 64 | shifted it to lower values | 1.7 ± 0.7 | MIC (S. pneumoniae; media BHI): 128 µM (≈ 46 µg/mL); MIC (S. pneumoniae; media MH): 256 µM (≈ 92 µg/mL); inhibition of the FMNAT activity of CaFADS (FMNAT activity of CaFADS; at the maximal compound concentration assayed (250 μM)): over 90%; MIC (M. smegmatis): > 256 µM; MIC (C. diphteriae; media BHI): 64 µM (≈ 23 µg/mL); IC50 (HeLa): > 512 µM; IC50 (A549): > 512 µM |
